Measurements taken from ChEMBL document CHEMBL1130837, “8-Aminoquinolines as anticoccidials--II” (Bioorg Med Chem Lett, 1998).

Assays:
Assay type in all cases: functional, organism-based
Gallus gallus [1] = species: Gallus gallus; test: Inhibitory activity against second generation merozoids of Eimeria tenella in chick hepatocyte assay; value given as 0.2-1.0
Gallus gallus [2] = species: Gallus gallus; test: Inhibitory activity against second generation merozoids of Eimeria tenella in chick hepatocyte assay
Gallus gallus [3] = species: Gallus gallus; test: Inhibitory activity against second generation merozoids of Eimeria tenella in chick hepatocyte assay in the absence of inhibitor; Value given as 0.08-0.016
Gallus gallus [4] = species: Gallus gallus; test: Inhibitory activity against second generation merozoids of Eimeria tenella in chick hepatocyte assay in the presence of iproniazid; Value given as 0.08-0.016
Gallus gallus [5] = species: Gallus gallus; test: Inhibitory activity against second generation merozoids of Eimeria tenella in chick hepatocyte assay in the presence of Tranylcypromine; Value given as 0.08-0.016
Gallus gallus [6] = species: Gallus gallus; test: Inhibitory activity against second generation merozoids of Eimeria tenella in chick hepatocyte assay in the presence of Tranylcypromine; value given as 0.004-0.0008
Gallus gallus [7] = species: Gallus gallus; test: Inhibitory activity against second generation merozoids of Eimeria tenella in chick hepatocyte assay in the absence of inhibitor; value given as 0.004-0.0008
Gallus gallus [8] = species: Gallus gallus; test: Inhibitory activity against second generation merozoids of Eimeria tenella in chick hepatocyte assay in the presence of iproniazid; value given as 0.004-0.0008
Gallus gallus [9] = species: Gallus gallus; test: Inhibitory activity against second generation merozoids of Eimeria tenella in chick hepatocyte assay in the presence of Tranylcypromine; Value given as 1-5
Gallus gallus [10] = species: Gallus gallus; test: Inhibitory activity against second generation merozoids of Eimeria tenella in chick hepatocyte assay in the absence of inhibitor; value given as 0.2-1.0
Gallus gallus [11] = species: Gallus gallus; test: Inhibitory activity against second generation merozoids of Eimeria tenella in chick hepatocyte assay in the presence of iproniazid; Value given as 1-5
Gallus gallus [12] = species: Gallus gallus; test: Inhibitory activity against second generation merozoids of Eimeria tenella in chick hepatocyte assay in the presence of Ketoconazole at 5 ug/ml; value given as 0.2-1.0
Gallus gallus [13] = species: Gallus gallus; test: Inhibitory activity against second generation merozoids of Eimeria tenella in chick hepatocyte assay in the presence of SKF-525A at 5 ug/ml; value given as 0.2-1.0
Gallus gallus [14] = species: Gallus gallus; test: Inhibitory activity against second generation merozoids of Eimeria tenella in chick hepatocyte assay in the presence of alpha-naphthoflavone at 5 ug/ml; value given as 0.2-1.0

Compound | IC50 (Gallus gallus [1]) | IC50 (Gallus gallus [2]) | other results
CCO/N=C/CCCCNc1cc(OC)cc2cccnc12 | 0.2 p.p.m. | – | –
COc1cc(NCCCC2OCCO2)c2ncccc2c1 | – | > 1 p.p.m. | –
CC[C@@H](C(=O)[C@@H](C)[C@@H](O)[C@H](C)[C@@H]1O[C@@H]([C@@H](CC)C(=O)O)CC[C@@H]1C)[C@H]1O[C@]2(C=C[C@@H](O)[C@]3(CC[C@@](C)([C@H]4CC[C@](O)(CC)[C@H](C)O4)O3)O2)[C@H](C)C[C@@H]1C [SALINOMYCIN] | – | – | IC50 (Gallus gallus [3]): 0.016 p.p.m.; IC50 (Gallus gallus [4]): 0.016 p.p.m.; IC50 (Gallus gallus [5]): 0.016 p.p.m.
COc1cc(NCCCC/C=N/OCc2ccc([N+](=O)[O-])cc2)c2ncccc2c1 | – | > 1 p.p.m. | –
N#CC(c1ccc(Cl)cc1)c1c(Cl)cc(-n2ncc(=O)[nH]c2=O)cc1Cl (stereo not given) [DICLAZURIL] | – | – | IC50 (Gallus gallus [6]): 0.0008 p.p.m.; IC50 (Gallus gallus [7]): 0.0008 p.p.m.; IC50 (Gallus gallus [8]): 0.0008 p.p.m.
COc1cc(NCCCC2(C)OCCO2)c2ncccc2c1 | – | > 1 p.p.m. | –
COc1cc(NCCCCCO)c2ncccc2c1 | – | > 1 p.p.m. | –
C=CCO/N=C/CCCCNc1cc(OC)cc2cccnc12 | 0.2 p.p.m. | – | –
COc1cc(NCCCC/C=N/OC(C)(C)C)c2ncccc2c1 | 0.2 p.p.m. | – | –
COc1cc(NCCCC2(c3ccc(F)cc3)OCCO2)c2ncccc2c1 | 0.2 p.p.m. | – | –
COc1cc(NCCCCC2OCCO2)c2ncccc2c1 | 0.2 p.p.m. | – | –
CO/N=C/CCCCNc1cc(OC)cc2cccnc12 | 0.2 p.p.m. | – | –
CCCCCCCCCCOc1cc2c(O)c(C(=O)OCC)cnc2cc1OCC [DECOQUINATE] | – | – | IC50 (Gallus gallus [6]): 0.0008 p.p.m.; IC50 (Gallus gallus [7]): 0.0008 p.p.m.; IC50 (Gallus gallus [8]): 0.0008 p.p.m.
COc1cc(NCCCCC(=O)O)c2ncccc2c1 | – | > 1 p.p.m. | –
COc1cc(NCCCC/C=N/OC(=O)c2ccccc2)c2ncccc2c1 | 0.2 p.p.m. | – | –
COc1cc(NCCCC/C=N/O)c2ncccc2c1 | – | > 1 p.p.m. | –
COc1cc(NCCCCCNC(C)C)c2ncccc2c1 [PENTAQUINE] | – | – | IC50 (Gallus gallus [9]): 1 p.p.m.; IC50 (Gallus gallus [10]): 0.2 p.p.m.; IC50 (Gallus gallus [11]): 1 p.p.m.; IC50 (Gallus gallus [12]): 0.2 p.p.m.; IC50 (Gallus gallus [13]): 0.2 p.p.m.; IC50 (Gallus gallus [14]): 0.2 p.p.m.
COc1cc(NCCCC/C=N/OCC(=O)O)c2ncccc2c1 | – | > 1 p.p.m. | –
COc1cc(NCCCC/C=N/Oc2ccccc2)c2ncccc2c1 | 0.2 p.p.m. | – | –
